Source: PMC5813016 (Nature Communications, 2018)
“And” between values parts separate entries of the source, which are not always exact repeats. Equal entries are not always repeated.

Tests used:
human D1R F289A mutant = test: cAMP assay, D1R mutant F289A; conditions: relative to wild-type D1R; each table line is one experiment (Experiment # 1-6)
Adrenergic Alpha 1a = biological target: T1, Adrenergic Alpha 1a (Homo sapiens, UniProt P35348); test: FLIPR calcium assay, adrenergic alpha1a; type: cell-based; conditions: for EC50: read-out: Adrenergic Alpha 1a, Agonist EC50; for IC50: vs EC80 of agonist, read-out: Adrenergic Alpha 1a, Antagonist IC50
T1 construct: expressed in transfected cells
T1 sequence (P35348 1-466): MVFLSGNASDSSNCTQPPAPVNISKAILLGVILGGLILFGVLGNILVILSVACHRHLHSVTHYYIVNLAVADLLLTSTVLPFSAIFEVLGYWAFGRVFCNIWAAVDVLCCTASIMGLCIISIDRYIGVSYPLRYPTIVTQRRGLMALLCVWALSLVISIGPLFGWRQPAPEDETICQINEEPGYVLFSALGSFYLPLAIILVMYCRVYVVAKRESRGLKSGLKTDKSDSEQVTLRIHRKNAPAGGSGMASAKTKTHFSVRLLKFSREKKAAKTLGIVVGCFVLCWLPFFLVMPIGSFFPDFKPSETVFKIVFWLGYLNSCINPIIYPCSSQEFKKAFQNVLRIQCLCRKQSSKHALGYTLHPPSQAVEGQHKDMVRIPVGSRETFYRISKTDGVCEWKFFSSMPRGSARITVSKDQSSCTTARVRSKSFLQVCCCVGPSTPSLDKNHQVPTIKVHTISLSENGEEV
Procedure: (§1) Activation of the receptor by an agonist in this assay system results in an increase in intracellular calcium levels which is measured using a calcium specific dye. Cells were plated at 7500 cells per well (50 µl per well) in black walled clear bottomed 384-well plates 24 h prior to running the assay. […] Compound solution (10 µl) was added to each well by the FLIPR Tetra® instrument to measure agonist activity of the compound by measuring the change in fluorescence from baseline over a 60 s period (Ex […]). Subsequently 10 µl of agonist (EC80 value) was added to each well by the FLIPR Tetra® instrument to evaluate antagonist activity, with the change in fluorescence from baseline being measured over a 60 s period.
(§2) In vitro data analysis: Agonist/antagonist curves were plotted from individual experiments, and EC50/IC50 values were determined using a four parameter logistic fit.

Muscarinic 1 = biological target: T2, Muscarinic 1 (Homo sapiens, UniProt P11229); test: FLIPR calcium assay, muscarinic 1; type: cell-based; conditions: for EC50: read-out: Muscarinic 1, Agonist EC50; for IC50: vs EC80 of agonist, read-out: Muscarinic 1, Antagonist IC50
T2 construct: expressed in transfected cells
T2 sequence (P11229 1-460): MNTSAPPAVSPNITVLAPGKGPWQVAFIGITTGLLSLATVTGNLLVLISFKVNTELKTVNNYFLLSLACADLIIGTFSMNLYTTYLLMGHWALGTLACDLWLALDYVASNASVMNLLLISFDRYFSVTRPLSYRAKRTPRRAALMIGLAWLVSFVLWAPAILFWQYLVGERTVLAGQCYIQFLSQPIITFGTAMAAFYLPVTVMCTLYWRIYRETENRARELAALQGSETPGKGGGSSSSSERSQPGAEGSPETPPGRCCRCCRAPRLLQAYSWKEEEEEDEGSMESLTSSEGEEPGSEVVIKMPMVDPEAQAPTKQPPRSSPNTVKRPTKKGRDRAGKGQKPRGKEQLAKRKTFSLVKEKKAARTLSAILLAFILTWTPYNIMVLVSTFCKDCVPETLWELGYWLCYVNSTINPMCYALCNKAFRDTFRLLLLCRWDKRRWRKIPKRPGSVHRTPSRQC
Procedure: as §1, §2

Nav1.5 Sodium Channel = biological target: T3, Nav1.5 Sodium Channel (Homo sapiens, UniProt Q14524); test: FLIPR membrane potential assay, Nav1.5; type: cell-based; conditions: for EC50: read-out: Nav1.5 Sodium Channel Agonist EC50; for IC50: read-out: Nav1.5 Sodium Channel Antagonist IC50
T3 construct: expressed in transfected cells
T3 sequence (Q14524 whole entry): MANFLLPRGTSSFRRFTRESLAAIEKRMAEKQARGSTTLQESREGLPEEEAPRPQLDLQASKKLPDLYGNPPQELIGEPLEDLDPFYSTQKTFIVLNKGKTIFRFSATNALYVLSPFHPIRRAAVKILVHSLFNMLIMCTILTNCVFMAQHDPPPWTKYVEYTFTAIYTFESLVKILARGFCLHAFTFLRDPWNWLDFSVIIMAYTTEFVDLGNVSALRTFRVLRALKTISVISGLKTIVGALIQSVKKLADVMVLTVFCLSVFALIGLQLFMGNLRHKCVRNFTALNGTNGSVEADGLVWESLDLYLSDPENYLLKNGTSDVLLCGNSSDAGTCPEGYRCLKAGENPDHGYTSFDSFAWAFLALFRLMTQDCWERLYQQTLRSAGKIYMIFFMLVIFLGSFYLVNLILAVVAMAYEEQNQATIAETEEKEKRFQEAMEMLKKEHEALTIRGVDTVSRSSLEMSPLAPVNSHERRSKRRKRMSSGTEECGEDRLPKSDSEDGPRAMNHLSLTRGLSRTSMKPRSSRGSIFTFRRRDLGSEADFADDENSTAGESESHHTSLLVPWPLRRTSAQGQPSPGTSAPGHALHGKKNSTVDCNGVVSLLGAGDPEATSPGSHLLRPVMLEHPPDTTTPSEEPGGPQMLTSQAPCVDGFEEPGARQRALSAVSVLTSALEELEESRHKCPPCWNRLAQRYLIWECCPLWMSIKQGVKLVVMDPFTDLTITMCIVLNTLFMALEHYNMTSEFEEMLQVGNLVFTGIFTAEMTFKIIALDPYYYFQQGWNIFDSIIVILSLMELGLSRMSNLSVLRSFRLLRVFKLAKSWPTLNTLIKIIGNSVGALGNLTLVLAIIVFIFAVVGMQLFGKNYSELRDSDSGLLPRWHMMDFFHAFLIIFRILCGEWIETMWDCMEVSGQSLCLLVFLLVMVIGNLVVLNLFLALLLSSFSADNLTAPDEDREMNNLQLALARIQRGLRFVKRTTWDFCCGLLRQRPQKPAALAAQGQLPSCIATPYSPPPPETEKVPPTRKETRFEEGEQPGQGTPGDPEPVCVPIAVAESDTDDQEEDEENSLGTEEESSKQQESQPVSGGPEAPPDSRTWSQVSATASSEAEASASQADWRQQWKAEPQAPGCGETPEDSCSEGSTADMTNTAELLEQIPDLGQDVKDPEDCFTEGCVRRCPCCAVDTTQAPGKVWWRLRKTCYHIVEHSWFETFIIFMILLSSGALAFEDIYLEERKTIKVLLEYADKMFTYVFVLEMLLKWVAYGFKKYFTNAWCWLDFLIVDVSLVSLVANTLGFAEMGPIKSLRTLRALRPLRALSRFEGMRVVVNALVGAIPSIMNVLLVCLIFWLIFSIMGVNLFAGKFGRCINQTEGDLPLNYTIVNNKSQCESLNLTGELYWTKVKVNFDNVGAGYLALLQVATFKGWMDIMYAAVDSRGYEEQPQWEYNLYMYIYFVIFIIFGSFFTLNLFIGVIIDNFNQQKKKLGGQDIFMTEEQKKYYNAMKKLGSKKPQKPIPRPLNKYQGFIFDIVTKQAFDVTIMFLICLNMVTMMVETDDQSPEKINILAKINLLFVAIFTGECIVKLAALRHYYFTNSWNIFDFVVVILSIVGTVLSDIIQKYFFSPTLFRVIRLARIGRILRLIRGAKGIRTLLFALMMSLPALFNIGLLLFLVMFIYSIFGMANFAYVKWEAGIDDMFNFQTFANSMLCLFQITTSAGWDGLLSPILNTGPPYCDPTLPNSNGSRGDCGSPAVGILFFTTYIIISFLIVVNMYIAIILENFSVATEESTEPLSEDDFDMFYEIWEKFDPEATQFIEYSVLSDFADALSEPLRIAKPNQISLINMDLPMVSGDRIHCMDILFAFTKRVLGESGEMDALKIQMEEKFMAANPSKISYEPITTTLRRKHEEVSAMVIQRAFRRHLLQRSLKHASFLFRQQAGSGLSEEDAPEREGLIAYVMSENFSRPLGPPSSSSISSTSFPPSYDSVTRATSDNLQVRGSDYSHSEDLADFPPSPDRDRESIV
Procedure: Sodium channel (Nav1.5) activity was assessed using a FLIPR® based membrane potential assay using cells that stably express the Nav1.5 sodium channel subtype. Cells were plated at 7500 cells per well (50 µl per well) in black walled clear bottomed 384-well plates 24 h prior to running the assay. Medium was removed from the plates and 80 µl of (HBSS)/HEPES containing membrane potential dye (Molecular Devices; Cat # R8123) was added to each well and the plate was returned to the incubator for 1 h to allow dye loading. Compound solution (10 µl) was added to each well by the FLIPR Tetra® instrument to measure agonist activity of the compound by measuring the change in fluorescence from baseline over a 60 s period (Ex 510–545 nM; Em 565–625 nM). Subsequently 10 µl of agonist (EC80 value) was added to each well by the FLIPR Tetra® instrument to evaluate antagonist activity, with the change in fluorescence from baseline being measured over a 60 s period.
as §2

fold shift of cAMP functional potency, F289A (EC50 mutant/ EC50 WT) (human D1R F289A mutant)	Compound	EC50 (Adrenergic Alpha 1a) [µM]	IC50 (Adrenergic Alpha 1a) [µM]	EC50 (Muscarinic 1) [µM]	IC50 (Muscarinic 1) [µM]	EC50 (Nav1.5 Sodium Channel) [µM]	IC50 (Nav1.5 Sodium Channel) [µM]
–	Cc1cc(Oc2nccc3occc23)ccc1-c1c(C)cnnc1C [PF-1119]	> 10	> 10	> 10	> 10	> 10	2.64
12.4 and 16.0	Cc1cc(Oc2cccc(O)c2O)ccc1-c1c(C)ncnc1C [PF-1437]	–	–	–	–	–	–
–	Cc1cc(Oc2nccc3occc23)ccc1-n1c(C)nc2cnccc21 [PF-8294]	> 10	> 10	> 10	> 10	> 10	> 5.9
27.9	Cc1cc(Oc2nccc3occc23)ccc1-c1c(C)ncnc1C [PF-8871]	> 10	> 10	> 10	> 10	> 10	8.68

Compound	fold shift of cAMP functional potency, F289A (EC50 mutant/ EC50 WT) (human D1R F289A mutant)	EC50 (Adrenergic Alpha 1a) [µM]	IC50 (Adrenergic Alpha 1a) [µM]	EC50 (Muscarinic 1) [µM]	IC50 (Muscarinic 1) [µM]	EC50 (Nav1.5 Sodium Channel) [µM]	IC50 (Nav1.5 Sodium Channel) [µM]
Cc1cc(Oc2nccc3occc23)ccc1-c1c(C)ncc2nccn12 [PF-6142]	32.3 and 44.7	> 10	9.1	> 10	4.9	> 10	1.09
